For this test, the system named is CTP synthase. In words: Determination of CTP synthase Michaelis-Menten constants Km and Vmax (CTP formation kinetics from UTP, LC-MS/MS). The format is biochemical, human. The settings on record: initial UTP 0 to 6 mM. The method, then:
The cell extracts may be obtained from cultured cells (primary cultures of cells, blasts or cell lines), from blood derived cells. Particularly, mononuclear cells (PBMCs, peripheral blood mononuclear cells) have been isolated from peripheral blood. The cells were washed with phosphate buffer 0.1 M KH2PO4, pH=7.4, and then collected in HEPES buffer 70 mM, pH=8.0, containing 10 mM NaF and protease inhibitors leupeptin and pepstatin to the concentration of 10 μg/mL. The cells were immediately placed in a bath of ethanol and dry ice, and then placed for at least 1 hour at −80° C. The cells were then centrifuged for 30 minutes at 10 000 g at 4° C. The supernatant, containing the cytosolic fraction, was collected and contained proteins were dosed. One to 10 µg of proteins, prepared as described above, were used for measuring CTP synthase activity in a reaction mixture containing 4 μM internal standard, 1.25 mM UTP, 1.25 mM ATP, 0.31 mM GTP, 12.5 mM glutamine, 1.25 mM phosphoenolpyruvate, 0.62 mM EDTA and 10 mM NaF in 15 μL complete HEPES buffer 70 mM, pH=8.0. Enzymatic reaction was carried out at 37° C. for 90 minutes and then, the reaction tubes were cooled on ice and the enzymatic reaction was stopped by adding 15 μL HCLO4 1 M. The reaction tubes were vortexed and centrifuged for 5 minutes at 12 000 g at 4° C. The supernatants were diluted with the aqueous mobile phase A and transferred to a 384-well plate. Analyses were performed using a Waters chromatographic UPLC system (Acquity™ UPLC) connected to a Waters TQD quadrupole mass spectrometer, operated in the electrospray positive ion mode with selected reaction monitoring (SRM). […] Waters HSS T3, 1.8 μm particle size, 2.1×100 mm column, which was maintained at 30° C. throughout the analysis. The flow rate was 0.5 mL/min. Mobile phase A was 5 mM dibutylamine acetate in water and mobile phase B, 5 mM dibutylamine acetate in acetonitrile. Three distinct mobile-phase gradients were used (see Tables 6a to 6c below). Then the enzymatic constants of Michaelis-Menten, Km and Vmax were determined by performing CTP formation kinetics during 90 minutes by using initial concentrations of UTP ranging from 0 to 6 mM. The values obtained for Vmax and Km were of the same order of magnitude as those previously published with radio-isotopic methods (FIG. 4).

In general, Vmax refers to the top rate of the reaction or transport when substrate is in excess. Regarding `O=c1ccn([C@@H]2O[C@H](COP(=O)(O)OP(=O)(O)OP(=O)(O)O)[C@@H](O)[C@H]2O)c(=O)[nH]1` [UTP, uridine triphosphate], the Vmax (PBMCs activated, 90 minutes) was determined as 0.379 ± 0.091 nmol/min; the Vmax (activated PBMC protein extracts, 90 min) came out at 0.3789 ± 0.091 nmol/min; the Vmax (resting PBMC protein extracts, 90 min) amounted to 0.083 ± 0.02 nmol/min; the Vmax (resting cells, 90 minutes) is 0.083 ± 0.02 nmol/min.

These data come from patent US10731197B2, “Methods for detecting or quantifying CTP and CTP synthase activity” (Assistance Publique-Hopitaux de Paris, priority 2015, dated 2020).
